Measured values: patent publication US20260365653A1, “IRREVERSIBLE MUTEGFR INHIBITORS” (Bayer Aktiengesellschaft, priority 2022, published 2026)

What was measured:
BA/F3 (insSVD) cells = test: Ba/F3-EGFR-insSVD cell survival assay (Cell Titer-Glo); type: cell-based; conditions: Mus musculus, BaF3, 48 h, Table 3a, cell survival, Cell Titer-Glo, with 10 ng/ml EGF, without IL-3
Procedure, shortened: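 Ba/F3 cells stably expressing retroviral EGFR-insSVD or insSVD T790M, grown without IL-3 on 10 ng/ml EGF, 4000 cells/well. Compound pinned in, 48 h at 37° C. Viability by CellTiter-Glo luminescence.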

[1] = biological target: T1, mutEGFR (D770_N771insSVD) (Homo sapiens, UniProt P00533, DUP768-770); test: Exon20-Mutant-EGFR (D770_N771insSVD) kinase assay (TR-FRET); type: biochemical; conditions: mutEGFR (D770_N771insSVD) kinase assay IC50, Table 2a; D770_N771insSVD; 2 mM ATP
T1 construct: GST-EGFR #3 (SVD between D770 and N771); made in house; host or cells: Sf9 insect cells (baculovirus)
T1 sequence (P00533 with tags, fused parts or gaps DUP768-770): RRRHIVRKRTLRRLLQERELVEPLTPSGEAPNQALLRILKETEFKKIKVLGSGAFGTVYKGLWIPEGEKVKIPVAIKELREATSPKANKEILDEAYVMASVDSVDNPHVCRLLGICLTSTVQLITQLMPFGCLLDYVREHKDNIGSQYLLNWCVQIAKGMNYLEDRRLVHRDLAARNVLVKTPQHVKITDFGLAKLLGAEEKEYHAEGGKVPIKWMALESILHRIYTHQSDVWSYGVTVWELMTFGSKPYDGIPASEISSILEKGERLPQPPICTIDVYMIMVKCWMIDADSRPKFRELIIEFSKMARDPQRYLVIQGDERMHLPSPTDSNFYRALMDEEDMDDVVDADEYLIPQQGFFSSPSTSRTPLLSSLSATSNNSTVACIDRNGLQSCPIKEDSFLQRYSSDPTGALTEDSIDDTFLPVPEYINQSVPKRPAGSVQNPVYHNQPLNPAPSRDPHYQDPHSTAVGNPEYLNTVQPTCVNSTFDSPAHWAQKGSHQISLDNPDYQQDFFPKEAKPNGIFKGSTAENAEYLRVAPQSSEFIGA

[2] = biological target: T2, mutEGFR (D770_N771insNPG, T790) (Homo sapiens, UniProt P00533, INS770NPG/T790M); test: mutEGFR (D770_N771insNPG, T790) kinase assay; type: biochemical; conditions: Table 2a, D770_N771insNPG
T2 construct: exact insNPG construct not described; in-house EGFR proteins were N-terminal GST fusions from baculovirus/insect cells (borders R669-A1210 given only for WT, insSVD, insASV)
T2 sequence (P00533 with tags, fused parts or gaps INS770NPG/T790M limits assumed): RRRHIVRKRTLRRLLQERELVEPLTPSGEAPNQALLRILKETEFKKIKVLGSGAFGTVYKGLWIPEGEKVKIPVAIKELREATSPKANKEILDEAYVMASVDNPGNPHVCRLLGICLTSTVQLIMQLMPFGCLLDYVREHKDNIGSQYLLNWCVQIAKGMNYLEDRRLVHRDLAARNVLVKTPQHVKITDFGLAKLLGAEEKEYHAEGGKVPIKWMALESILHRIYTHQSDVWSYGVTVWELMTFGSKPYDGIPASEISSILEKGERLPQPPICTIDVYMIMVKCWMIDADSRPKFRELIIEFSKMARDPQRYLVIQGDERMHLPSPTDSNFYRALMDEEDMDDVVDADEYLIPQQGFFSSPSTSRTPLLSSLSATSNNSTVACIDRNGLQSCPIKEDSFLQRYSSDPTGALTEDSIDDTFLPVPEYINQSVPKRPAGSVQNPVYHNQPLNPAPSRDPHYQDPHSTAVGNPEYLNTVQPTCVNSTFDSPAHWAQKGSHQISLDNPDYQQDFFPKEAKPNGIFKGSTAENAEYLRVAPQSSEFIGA
Source text: The different EGFR proteins used in the biochemical kinase activity inhibition assays were generated inhouse by expression in insect cells using Baculo Virus system and subsequent purification as described in the following paragraphs.
The cDNAs encoding the various protein sequences from human EGFR human (P00533) were optimized for expression in eukaryotic cells and synthesized by the GeneArt Technology at Life Technologies.

CN(C)CC#CC(=O)N1CCn2nc(-c3ccc(Cl)cc3F)c(-c3ccncc3)c2C1 [Example 72, 1-[2-(4-chloro-2-fluorophenyl)-3-(pyridin-4-yl)-6,7-dihydropyrazolo[1,5-a]pyrazin-5(4H)-yl]-4-(dimethylamino)but-2-yn-1-one]
IC50 (BA/F3 (insSVD) cells): 17.9 nM | IC50 [1]: 0.211 nM | IC50 [2]: 0.3 nM

O=C(/C=C/CF)N1CCn2nc(-c3ccc(Cl)cc3F)c(-c3ccncc3)c2C1 [Example 73, (2E)-1-[2-(4-chloro-2-fluorophenyl)-3-(pyridin-4-yl)-6,7-dihydropyrazolo[1,5-a]pyrazin-5(4H)-yl]-4-fluorobut-2-en-1-one]
IC50 (BA/F3 (insSVD) cells): 61 nM | IC50 [1]: 1.09 nM | IC50 [2]: 5.1 nM

O=C(/C=C/C(F)F)N1CCn2nc(-c3ccc(Cl)cc3F)c(-c3ccncc3)c2C1 [Example 74, (2E)-1-[2-(4-chloro-2-fluorophenyl)-3-(pyridin-4-yl)-6,7-dihydropyrazolo[1,5-a]pyrazin-5(4H)-yl]-4,4-difluorobut-2-en-1-one]
IC50 (BA/F3 (insSVD) cells): 34 nM | IC50 [1]: 0.183 nM | IC50 [2]: 0.807 nM

O=C(/C=C/Cl)N1CCn2nc(-c3ccc(Cl)cc3F)c(-c3ccncc3)c2C1 [Example 75, (2E)-3-chloro-1-[2-(4-chloro-2-fluorophenyl)-3-(pyridin-4-yl)-6,7-dihydropyrazolo[1,5-a]pyrazin-5(4H)-yl]prop-2-en-1-one]
IC50 (BA/F3 (insSVD) cells): 135 nM | IC50 [1]: 0.197 nM | IC50 [2]: 0.995 nM

CN1CC=C(C(=O)N2CCn3nc(-c4ccc(Cl)cc4F)c(-c4ccncc4)c3C2)C1 [Example 76, [2-(4-chloro-2-fluorophenyl)-3-(pyridin-4-yl)-6,7-dihydropyrazolo[1,5-a]pyrazin-5(4H)-yl](1-methyl-2,5-dihydro-1H-pyrrol-3-yl) methanone]
IC50 (BA/F3 (insSVD) cells): 666 nM | IC50 [1]: 30.3 nM | IC50 [2]: 77.3 nM

O=C(/C=C/CN1CCC1)N1CCn2nc(-c3ccc(Cl)cc3F)c(-c3ccncc3)c2C1 [Example 77, (2E)-4-(azetidin-1-yl)-1-[2-(4-chloro-2-fluorophenyl)-3-(pyridin-4-yl)-6,7-dihydropyrazolo[1,5-a]pyrazin-5(4H)-yl]but-2-en-1-one]
IC50 (BA/F3 (insSVD) cells): 25.9 nM | IC50 [1]: 0.347 nM | IC50 [2]: 1.6 nM

O=C(/C=C/CF)N1CCn2nc(-c3ccc(F)cc3)c(-c3ccncc3)c2C1 [Example 78, (2E)-4-fluoro-1-[2-(4-fluorophenyl)-3-(pyridin-4-yl)-6,7-dihydropyrazolo[1,5-a]pyrazin-5(4H)-yl]but-2-en-1-one]
IC50 (BA/F3 (insSVD) cells): 115 nM | IC50 [1]: 3.86 nM | IC50 [2]: 15.4 nM

O=C(/C=C/CN1CCCC1)N1CCn2nc(-c3ccc(F)cc3)c(-c3ccncc3)c2C1 [Example 79, (2E)-1-[2-(4-fluorophenyl)-3-(pyridin-4-yl)-6,7-dihydropyrazolo[1,5-a]pyrazin-5(4H)-yl]-4-(pyrrolidin-1-yl) but-2-en-1-one]
IC50 (BA/F3 (insSVD) cells): 62.9 nM | IC50 [1]: 1.47 nM | IC50 [2]: 2.51 nM

CO[C@H]1CCN(C/C=C/C(=O)N2CCn3nc(-c4ccc(F)cc4)c(-c4ccncc4)c3C2)C1 [Example 83, (2E)-1-[2-(4-fluorophenyl)-3-(pyridin-4-yl)-6,7-dihydropyrazolo[1,5-a]pyrazin-5(4H)-yl]-4-[(3S)-3-methoxypyrrolidin-1-yl]but-2-en-1-one]
IC50 (BA/F3 (insSVD) cells): 132 nM | IC50 [1]: 0.976 nM | IC50 [2]: 3.53 nM

O=C(/C=C/CN1CC(F)(F)C1)N1CCn2nc(-c3ccc(F)cc3)c(-c3ccncc3)c2C1 [Example 84, (2E)-4-(3,3-difluoroazetidin-1-yl)-1-[2-(4-fluorophenyl)-3-(pyridin-4-yl)-6,7-dihydropyrazolo[1,5-a]pyrazin-5(4H)-yl]but-2-en-1-one]
IC50 (BA/F3 (insSVD) cells): 1230 nM | IC50 [1]: 13.4 nM | IC50 [2]: 50.6 nM

O=C(C#CCN1CCOCC1)N1CCn2nc(-c3ccc(Cl)cc3F)c(-c3ccncc3)c2C1 [Example 85, 1-[2-(4-chloro-2-fluorophenyl)-3-(pyridin-4-yl)-6,7-dihydropyrazolo[1,5-a]pyrazin-5(4H)-yl]-4-(morpholin-4-yl) but-2-yn-1-one]
IC50 (BA/F3 (insSVD) cells): 34.6 nM | IC50 [1]: 0.731 nM | IC50 [2]: 2.43 nM

CC(C)(C)OC(=O)NC1(C#CC(=O)N2CCn3nc(-c4ccc(F)cc4)c(-c4ccncc4)c3C2)CC1 [Example 86, tert-butyl (1-{3-[2-(4-fluorophenyl)-3-(pyridin-4-yl)-6,7-dihydropyrazolo[1,5-a]pyrazin-5(4H)-yl]-3-oxoprop-1-yn-1-yl}cyclopropyl) carbamate]
IC50 (BA/F3 (insSVD) cells): 971 nM | IC50 [1]: 122 nM | IC50 [2]: 237 nM

NC1(C#CC(=O)N2CCn3nc(-c4ccc(F)cc4)c(-c4ccncc4)c3C2)CC1 [Example 89, 3-(1-aminocyclopropyl)-1-[2-(4-fluorophenyl)-3-(pyridin-4-yl)-6,7-dihydropyrazolo[1,5-a]pyrazin-5(4H)-yl]prop-2-yn-1-one]
IC50 (BA/F3 (insSVD) cells): 5060 nM | IC50 [1]: 6.06 nM | IC50 [2]: 8.7 nM

CC(C)(C)OC(=O)NCC#CC(=O)N1CCn2nc(-c3ccc(F)cc3)c(-c3ccncc3)c2C1 [Example 90, tert-butyl {4-[2-(4-fluorophenyl)-3-(pyridin-4-yl)-6,7-dihydropyrazolo[1,5-a]pyrazin-5(4H)-yl]-4-oxobut-2-yn-1-yl}carbamate]
IC50 (BA/F3 (insSVD) cells): 166 nM | IC50 [1]: 2.08 nM | IC50 [2]: 5.34 nM

NCC#CC(=O)N1CCn2nc(-c3ccc(F)cc3)c(-c3ccncc3)c2C1 [Example 91, 4-amino-1-[2-(4-fluorophenyl)-3-(pyridin-4-yl)-6,7-dihydropyrazolo[1,5-a]pyrazin-5(4H)-yl]but-2-yn-1-one]
IC50 (BA/F3 (insSVD) cells): 1410 nM | IC50 [1]: 26.3 nM | IC50 [2]: 52.8 nM

C=CC(=O)N1CCn2nc(Nc3ccc(Cl)cc3F)c(-c3ccnc4[nH]cc(C)c34)c2C1 [Example 92, 1-[2-(4-chloro-2-fluoroanilino)-3-(3-methyl-1H-pyrrolo[2,3-b]pyridin-4-yl)-6,7-dihydropyrazolo[1,5-a]pyrazin-5(4H)-yl]prop-2-en-1-one]
IC50 (BA/F3 (insSVD) cells): 125 nM | IC50 [1]: 24.6 nM | IC50 [2]: 53.6 nM

C=CC(=O)N1CCn2nc(Nc3ccc(C(F)(F)F)cc3)c(-c3ccnc4[nH]cc(C)c34)c2C1 [Example 94, 1-[3-(3-methyl-1H-pyrrolo[2,3-b]pyridin-4-yl)-2-[4-(trifluoromethyl)anilino]-6,7-dihydropyrazolo[1,5-a]pyrazin-5(4H)-yl]prop-2-en-1-one]
IC50 (BA/F3 (insSVD) cells): 2760 nM | IC50 [1]: 213 nM | IC50 [2]: 403 nM

C=CC(=O)N1CCn2nc(Nc3ccc(Cl)cc3F)c(-c3ccncc3)c2C1 [Example 95, 1-[2-(4-chloro-2-fluoroanilino)-3-(pyridin-4-yl)-6,7-dihydropyrazolo[1,5-a]pyrazin-5(4H)-yl]prop-2-en-1-one]
IC50 (BA/F3 (insSVD) cells): 1210 nM | IC50 [1]: 40.6 nM | IC50 [2]: 99.5 nM

C=CC(=O)N1CCn2nc(Nc3ccc(OC)c(F)c3)c(-c3ccncc3)c2C1 [Example 96, 1-[2-(3-fluoro-4-methoxyanilino)-3-(pyridin-4-yl)-6,7-dihydropyrazolo[1,5-a]pyrazin-5(4H)-yl]prop-2-en-1-one]
IC50 (BA/F3 (insSVD) cells): 7930 nM | IC50 [1]: 2030 nM | IC50 [2]: 7960 nM

C=CC(=O)N1CCn2nc(Nc3ccc(C(F)(F)F)cc3)c(-c3ccncc3)c2C1 [Example 97, 1-[3-(pyridin-4-yl)-2-[4-(trifluoromethyl)anilino]-6,7-dihydropyrazolo[1,5-a]pyrazin-5(4H)-yl]prop-2-en-1-one]
IC50 (BA/F3 (insSVD) cells): 4360 nM | IC50 [1]: 626 nM | IC50 [2]: 3800 nM
